Data set [1] addresses T1, wt HIV-1 RT-associated RNase H (Human immunodeficiency virus type 1 group M subtype B, UniProt P04585).
T1 construct: dynamics at the p66/p51 HIV-1 RT-RNase H dimer interface; made in house
The experiment in a line: RNase H inhibitor analysis, wild type RT (fluorescent RNA/DNA hybrid). In kind it is biochemical. Conditions: for IC50: wild type RT. The procedure: All assays were performed in triplicate.

Data set [2] has as its target T2, HIV-1 IN in the presence of LEDGF/p75 (Human immunodeficiency virus type 1 group M subtype B, UniProt P04585).
T2 construct: made in house
The experiment in a line: HTRF IN LEDGF/p75-dependent assay. In kind it is biochemical. The procedure: The IN LEDGF/p75-dependent assay measures inhibition of IN activity in the presence of LEDGF/p75 protein[35–37]. Briefly, 50 nM IN was pre-incubated with increasing concentration of compounds for 1 h at room temperature in reaction buffer containing 20 mM HEPES pH 7.5, 1 mM DTT, 1% Glycerol, 20 mM MgCl2, 0.05% Brij-35 and 0.1 mg/ml BSA. To this mixture, 9 nM DNA donor substrate (5′-[…]-Biotin-3′ annealed with 5′-[…]-Biotin3’) and 50 nM DNA acceptor substrate (5′-Cy5-[…]-3′ annealed with 5′-Cy5- […]-3′) and 50 nM LEDGF/p75 were added and incubated at 37 °C for 90 min.

Data set [3] has as its target T3, p66/p51C280A mutant HIV-1 RNase H (Human immunodeficiency virus type 1 group M subtype B, UniProt P04585, C867A). The experiment in a line: RNase H inhibitor analysis, p66/p51 C280A mutant RT.
Protocol: IC50 values were determined as previously reported[31] using an 18-nt 3′-fluorescein-labeled RNA annealed to a complementary 18-nt 5′-dabcyl-labeled DNA. To a 96-well plate was added 1 μL of each inhibitor (in DMSO), followed by 10 μL of the appropriate RT (15−80 ng/mL) in reaction buffer. […] Wells containing only DMSO was used as negative control. […] IC50 values were determined using Prism5 (GraphPad Software, San Diego, CA). All assays were performed in triplicate.
A further data set has as its target T4, HIV-1 RT-associated RDDP (Human immunodeficiency virus type 1 group M subtype B, UniProt P04585).
T4 construct: dynamics at the p66/p51 HIV-1 RT-RNase H dimer interface; made in house
The experiment in a line: HIV-1 RNA-dependent DNA polymerase activity determination. In kind it is biochemical. Conditions: wt RT, poly(A)-oligo(dT). The procedure: HIV-1 RT-associated RDDP activity was measured as described[17]^,[38]. Briefly, in 25 μL volume containing 60 mM Tris-HCl pH 8.1, 8 mM MgCl2, 60 mM KCl, 13 mM DTT, poly(A)-oligo(dT), 100 μM dTTP, and 6 ng wt RT. After enzyme addition, the reaction mixture was incubated for 30 min at 37 °C and stopped by addition of EDTA. […] All assays were performed in triplicate.

The target in data set [4] is T3, p66/p51C280A mutant HIV-1 RNase H. More on the design: made in house; method as in PMID 24261890. Conditions: p66/p51 C280A mutant RT; cited from earlier work.
For data set [5], the system named is HIV-1RF isolate in CEM-SS cells. The experiment in a line: Antiviral activity, XTT-based cell viability assay. To be noted: for selectivity index (SI): CC50/EC50, CEM-SS cells; for EC50: Human immunodeficiency virus 1, HIV-1RF, CEM-SS cells, XTT. The procedure:
(§1) Antiviral activity of selected thienopyrimidinones was determined via the 2,3-bis[2-methoxy-4-nitro-5-sulfophenyl]-5-[(phenylamino)carbonyl]-2H tetrazolium hydroxide (XTT)-based cell viability assay of Weislow et al.[45], using the HIV-1RF isolate and human T-cell line CEM-SS.
On the technique in general: Tetrazolium dyes change colour on reduction, which living cells bring about.

Data set [6] can be described thus: Cytotoxicity in XTT-based cell viability assay. Conditions: human, CEM-SS T cells. The procedure: as §1
Data set [7] concerns the target T5, HIV-1 RT-associated RNase H (Human immunodeficiency virus type 1 group M subtype B, UniProt P04585).
T5 construct: dynamics at the p66/p51 HIV-1 RT-RNase H dimer interface; made in house
The experiment in a line: Yonetani-Theorell analysis on RNase H activity. In kind it is biochemical. Conditions: combination of compound 11 and compound 24. The procedure:
Yonetani–Theorell analysis[43] was performed as reported. Briefly, HIV RT-associated RNase H activity was measured in 100 µL reaction volume containing 50 mM Tris–HCl buffer pH 7.8, 6 mM MgCl2, 1 mM dithiothreitol (DTT), 80 mM KCl, 0.25 µM hybrid RNA/DNA 5′-[…]-Fluorescin-3′ (HPLC, dry, QC: Mass Check) (available from Metabion) 5′-Dabcyl-[…]-3′(HPLC, dry, QC: Mass Check), and different amount of enzymes according to a linear range of dose-response curve: 20 ng of WT RT, and increasing concentrations of inhibitor (diluted) in water and incubated for 1 h at 37 °C, at 200 rpm. Products were measured with a multilabel counter plate reader Victor 3 (Perkin Elmer model 1420-051) equipped with filters for 490/528 nm (excitation/emission wavelength). A calibration curve for the fluorescein signal was generated in parallel, calculating pmols of product generated by the reaction. The reciprocal of the reaction product was plotted vs. the compound concentration a different condition using the Sigma-Plot software.

Read-outs that look alike come from different tables or passages of the source.

Here are results for 22 compounds from article PMC7646544, “Scaffold hopping and optimisation of 3’,4’-dihydroxyphenyl- containing thienopyrimidinones: synthesis of quinazolinone derivatives as novel allosteric inhibitors of HIV-1 reverse transcriptase-associated ribonuclease H” (Journal of Enzyme Inhibition and Medicinal Chemistry, 2020).

By IC50 is commonly meant the concentration at which inhibition is half-maximal. By EC50 is commonly meant the midpoint of the concentration-response curve. A low value points to an effect from little substance. What is called CC50 is the concentration giving 50% cytotoxicity.

`O=C(O)c1ccc(-c2nc3ccccc3c(=O)[nH]2)cc1O` [Compound 18, 2-hydroxy-4-(4-oxo-3,4-dihydroquinazolin-2-yl)benzoic acid] showed an IC50 in data set [1] of 13.6 ± 0.3 µM.
For `COc1ccc2nc(-c3ccc(O)c(O)c3)[nH]c(=O)c2c1` [Compound 4, 2–(3,4-dihydroxyphenyl)-6-methoxyquinazolin-4(3H)-one], the IC50 in data set [2] is 8.5 ± 0.3 µM; in data set [3], 410 ± 10 nM; in data set [1], 0.57 ± 0.02 µM; against HIV-1 RT-associated RDDP, 57 ± 3 µM.
For the compound `Cc1sc2nc(-c3ccc(O)c(O)c3)[nH]c(=O)c2c1C` [Compound 1, 2-(3,4-dihydroxyphenyl)-5,6-dimethylthieno[2,3-d]pyrimidin-4(3H)-one, reference compound], the IC50 in data set [4] is 320 nM.
Regarding `Cc1ccc2c(=O)[nH]c(-c3ccc(O)c(O)c3)nc2c1` [Compound 3, 2–(3,4-dihydroxyphenyl)-7-methylquinazolin-4(3H)-one], the IC50 came to 2.35 ± 0.44 µM in data set [2], 230 ± 20 nM in data set [3], 0.5 ± 0.02 µM in data set [1] and 60 ± 9 µM at HIV-1 RT-associated RDDP. Further, the “selectivity index (SI)” value in data set [5] is on record as 2. The compound also displayed a half-maximal effective concentration (EC50) in data set [5] of 12 µM. In data set [6], this compound gave a CC50 of 25 µM.
For `O=c1[nH]c(-c2ccc(O)c(O)c2)nc2ccc([N+](=O)[O-])cc12` [Compound 13, 2–(3,4-dihydroxyphenyl)-6-nitroquinazolin-4(3H)-one], the IC50 in data set [2] was found to be 23.2 ± 0.8 µM; in data set [3], 170 ± 4 nM; in data set [1], 0.31 ± 0.01 µM; against HIV-1 RT-associated RDDP, 99 ± 1 µM.
Take `O=c1[nH]c(-c2ccc(O)c(O)c2)nc2ccc(Br)cc12` [Compound 9, 2–(3,4-dihydroxyphenyl)-6-bromoquinazolin-4(3H)-one]: the IC50 in data set [2] amounted to 7 ± 2 µM; in data set [3] it was 400 ± 10 nM; in data set [1], 0.45 ± 0.008 µM; against HIV-1 RT-associated RDDP, 46 ± 3 µM.
On the same counts, the results for `O=c1[nH]c(-c2ccc(O)c(O)c2)nc2ccc(-c3ccccc3)cc12` [Compound 6, 2–(3,4-dihydroxyphenyl)-6-phenylquinazolin-4(3H)-one] are 89 ± 10 µM, 290 ± 6 nM, 0.37 ± 0.01 µM and 63 ± 11 µM.
`O=c1[nH]c(-c2ccc(O)c(O)c2)nc2sc3c(c12)CCCCC3` [Compound 24, 2–(3,4-dihydroxyphenyl)-3,5,6,7,8,9-hexahydro-4H-cyclohepta[4,5]thieno[2,3-d]pyrimidin-4-one, reference compound]: in data set [7], the “interaction constant α” value is on record as “greater than 1” and the “simultaneous inhibition of RNase H (Yonetani-Theorell)” value is on record as “not kinetically mutually exclusive”.
Take `O=c1[nH]c(-c2ccc(O)c(O)c2)nc2c1oc1ccccc12` [Compound 15, 2–(3,4-dihydroxyphenyl)benzofuro[3,2-d]pyrimidin-4(3H)-one]: the IC50 came out at 5.35 ± 0.35 µM in data set [2], 390 ± 10 nM in data set [3], 0.64 ± 0.03 µM in data set [1] and 25.3 ± 6.3 µM on HIV-1 RT-associated RDDP.
Turning to `O=C1NC(c2ccc(O)c(O)c2)Nc2ccc(Cl)cc21` (centres unmarked) [Compound 14, 6-chloro-2–(3,4-dihydroxyphenyl)-2,3-dihydroquinazolin-4(1H)-one], the IC50 in data set [2] was above 100 µM; in data set [3] it was 400 ± 30 nM; in data set [1], 0.56 ± 0.25 µM; against HIV-1 RT-associated RDDP, above 100 µM.
As for `O=c1[nH]c(-c2ccc(O)c(O)c2)nc2cc3ccccc3cc12` [Compound 7, 2–(3,4-dihydroxyphenyl)benzo[g]quinazolin-4(3H)-one], the IC50 was 31.5 ± 6.5 µM in data set [2], 510 ± 50 nM in data set [3], 1.1 ± 0.04 µM in data set [1] and 23.4 ± 0.5 µM against HIV-1 RT-associated RDDP.
In the case of `O=c1[nH]c(-c2ccc(O)c(O)c2)nc2cc(Cl)ccc12` [Compound 11, 2–(3,4-dihydroxyphenyl)-7-chloroquinazolin-4(3H)-one], the IC50 in data set [2] was 7.2 ± 0.7 µM; in data set [3] it was 660 ± 50 nM; in data set [1] it was 0.43 ± 0.01 µM; against HIV-1 RT-associated RDDP it was above 100 µM. In addition, the “selectivity index (SI)” value in data set [5] was found to be 3. The compound also came in with an EC50 in data set [5] of 1.8 µM. This compound came in with a CC50 in data set [6] of 6 µM. Also, the “interaction constant α” value in data set [7] was “greater than 1”. The “simultaneous inhibition of RNase H (Yonetani-Theorell)” value in data set [7] is given as “not kinetically mutually exclusive”.
Compound `O=c1[nH]c(-c2ccc([N+](=O)[O-])c(O)c2)nc2ccccc12` [Compound 21, 2–(3-hydroxy-4-nitrophenyl)quinazolin-4(3H)-one] returned an IC50 in data set [1] above 50 µM.
As for `O=c1[nH]c(-c2ccc(O)c(O)c2)nc2ccc(Cl)cc12` [Compound 10, 2–(3,4-dihydroxyphenyl)-6-chloroquinazolin-4(3H)-one], the IC50 worked out at 3.4 ± 0.6 µM in data set [2], 200 ± 10 nM in data set [3], 0.31 ± 0.01 µM in data set [1] and 30.5 ± 0.4 µM against HIV-1 RT-associated RDDP. For the same compound, the “selectivity index (SI)” value in data set [5] turned out to be 4. The compound also yielded an EC50 in data set [5] of 5.4 µM. The compound further showed a CC50 in data set [6] of 22 µM.
As for `Nc1ccc(-c2nc3ccccc3c(=O)[nH]2)cc1O` [Compound 19, 2-(4-amino-3-hydroxyphenyl)quinazolin-4(3H)-one], the IC50 in data set [1] is above 50 µM.
Regarding `O=c1[nH]c(-c2ccc(O)c(O)c2)nc2ccc(I)cc12` [Compound 8, 2–(3,4-dihydroxyphenyl)-6-iodoquinazolin-4(3H)-one], the IC50 in data set [2] is 3.4 ± 0.83 µM; in data set [3], 120 ± 1 nM; in data set [1], 0.15 ± 0.01 µM; against HIV-1 RT-associated RDDP it was 26.7 ± 2.2 µM. In data set [5], the “selectivity index (SI)” value is recorded as 2. This compound yielded an EC50 in data set [5] of 8.3 µM. Also, the CC50 in data set [6] was determined as 17 µM.
As to `O=c1[nH]c(-c2ccc(O)c(O)c2)nc2ccc(F)cc12` [Compound 12, 2–(3,4-dihydroxyphenyl)-6-fluoroquinazolin-4(3H)-one], the IC50 in data set [2] was 6.61 ± 0.93 µM; in data set [3], 840 ± 30 nM; in data set [1], 0.52 ± 0.06 µM; on HIV-1 RT-associated RDDP, above 100 µM.
On to `Oc1ccc(-c2ccc3ccccc3c2)cc1O` [Compound 23, 4-(naphthalen-2-yl)benzene-1,2-diol], for which, in data set [5], the “selectivity index (SI)” value is given as 2 and the EC50 turned out to be 14 µM. Moreover, the midpoint of inhibition in data set [3], the IC50, lay at 1200 ± 40 nM. Moreover, the IC50 in data set [1] stood at 0.71 ± 0.03 µM. In addition, the “fold more potent than the reported compound 17” value in data set [1] (wt RT RNase H) turned out to be 5 fold. Further, in data set [6], it took 26 µM to reach half-maximal cytotoxicity (CC50).
For `O=c1[nH]c(-c2ccc(O)c(O)c2)nc2ncccc12` [Compound 16, 2–(3,4-dihydroxyphenyl)pyrido[2,3-d]pyrimidin-4(3H)-one], the IC50 in data set [2] turned out to be 0.69 ± 0.19 µM; in data set [3] it was 2000 ± 100 nM; in data set [1], 2.4 ± 1.6 µM; against HIV-1 RT-associated RDDP, 38 ± 4 µM.
With `Nc1ccc(-c2nc3ccccc3c(=O)[nH]2)cc1N` [Compound 20, 2–(3,4-diaminophenyl)quinazolin-4(3H)-one], the IC50 in data set [1] was above 50 µM.
Turning to `COc1cc2nc(-c3ccc(O)c(O)c3)[nH]c(=O)c2cc1OC` [Compound 5, 2–(3,4-dihydroxyphenyl)-6,7-dimethoxyquinazolin-4(3H)-one], the IC50 was 6.5 ± 2.5 µM in data set [2], 330 ± 3 nM in data set [3], 0.73 ± 0.02 µM in data set [1] and above 100 µM against HIV-1 RT-associated RDDP.
For `Oc1ccc(-c2ccc3ccccc3n2)cc1O` [Compound 22, 4-(quinolin-2-yl)benzene-1,2-diol], the IC50 was 610 ± 220 nM in data set [3] and 2.9 ± 0.89 µM in data set [1]. The “fold more potent on C280A mutant RT RNase H than wt RT” value in data set [3] (C280A vs wt) came to 4 fold.
